Like-named read-outs stand apart in the source and are kept apart here. Where only a bound is given, the exact number is not on record here.

For one experiment, the target named is T1, ovine COX-1 (Ovis aries, UniProt P05979).
T1 construct: purchased Cayman Chemicals (Ann Arbor, Mich.)
T1 sequence (P05979 25-600): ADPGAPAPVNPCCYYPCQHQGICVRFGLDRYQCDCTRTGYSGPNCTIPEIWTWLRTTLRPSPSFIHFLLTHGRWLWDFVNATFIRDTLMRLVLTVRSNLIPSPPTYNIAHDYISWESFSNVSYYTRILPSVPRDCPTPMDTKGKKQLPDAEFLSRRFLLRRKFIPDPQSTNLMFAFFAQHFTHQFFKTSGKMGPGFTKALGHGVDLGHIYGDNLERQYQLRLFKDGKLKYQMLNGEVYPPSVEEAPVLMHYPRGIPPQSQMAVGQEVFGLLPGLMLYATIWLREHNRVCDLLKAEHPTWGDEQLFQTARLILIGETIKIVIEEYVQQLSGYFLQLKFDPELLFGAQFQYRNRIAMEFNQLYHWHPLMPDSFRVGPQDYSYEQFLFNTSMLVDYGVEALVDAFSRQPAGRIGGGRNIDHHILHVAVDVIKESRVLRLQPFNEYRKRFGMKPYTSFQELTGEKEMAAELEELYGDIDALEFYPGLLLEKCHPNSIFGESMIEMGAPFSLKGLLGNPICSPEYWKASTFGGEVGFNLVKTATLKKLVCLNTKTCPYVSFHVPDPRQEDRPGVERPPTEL
As to the kind of experiment: COX-1 activity assay using purified enzyme. Type of experiment: biochemical. To be noted: purified enzyme, Not inhibit: 9′ at 20 μM, acetaminophen at 250 μM. The protocol:
(§1) COX-1 and COX -2 activity assay using purified enzymes—The enzymatic reactions were performed in 0.1M Tris (pH 8.0), in the presence of 5 mM EDTA, 2 mM phenol, and 1 μM heme. […] Enzymatic reactions were initiated by addition of AA at a final concentration of 5 μM for 2 min. The reaction was stopped by addition of 0.1 M HCl. Stannous chloride in 0.1 M HCl was then added to reduce PGG2 and PGH2 to PGF2a. After addition of 0.5 vol of […] NaCl, prostaglandins formed in the reaction were extracted using 2.5 vol of ethyl acetate and the organic layer was completely dried under N2. PGF2a, and PGE2 were quantified using ELISA assays from Cayman Chemicals.

Experiment [1] deals with T2, COX-2 (Homo sapiens, UniProt P35354).
T2 sequence (P35354 18-604): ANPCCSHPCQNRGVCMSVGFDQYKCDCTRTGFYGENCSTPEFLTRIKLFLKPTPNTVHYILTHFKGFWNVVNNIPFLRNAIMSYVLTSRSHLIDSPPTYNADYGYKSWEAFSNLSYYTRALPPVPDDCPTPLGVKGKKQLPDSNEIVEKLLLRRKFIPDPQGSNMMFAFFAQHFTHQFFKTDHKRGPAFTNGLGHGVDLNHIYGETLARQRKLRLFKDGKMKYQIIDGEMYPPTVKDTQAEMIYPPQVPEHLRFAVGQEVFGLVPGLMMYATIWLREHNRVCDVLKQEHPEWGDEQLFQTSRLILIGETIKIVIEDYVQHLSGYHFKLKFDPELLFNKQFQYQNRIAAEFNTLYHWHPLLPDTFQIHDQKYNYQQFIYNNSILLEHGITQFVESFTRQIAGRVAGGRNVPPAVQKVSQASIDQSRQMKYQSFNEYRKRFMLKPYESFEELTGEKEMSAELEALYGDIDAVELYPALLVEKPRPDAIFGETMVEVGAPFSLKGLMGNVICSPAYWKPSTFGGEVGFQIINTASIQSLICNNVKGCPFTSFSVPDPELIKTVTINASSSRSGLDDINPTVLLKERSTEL
In words: COX-2 activity assay using purified enzyme. Further details: purchased Cayman Chemicals (Ann Arbor, Mich.); IC50 in the enzyme assay: unit not given beside the values. Type of experiment: biochemical. To be noted: for IC50: purified enzyme, Not inhibit: 9′ at 20 μM, acetaminophen at 250 μM. The protocol:
as §1

Experiment [2] addresses T2, COX-2. Also on record: A549 cells were pre-treated with 0.5-1 ng/mL of IL-1β- for 6 hours to induce COX-2 expression; endogenous in cells. The settings on record: previously reported; read-out: IC50 COX-2 in A549 cells; cited from earlier work.

With `Cc1c(O)cc2c(c1C)OC(C)(CCC(=O)O)CC2` (stereo not drawn) [γ-CEHC, reference compound], the IC50 – broadly, the concentration that gives 50% inhibition – against ovine COX-1 is 300 ± 50 µM; against ovine COX-1 (listed as F-CEHC), 300 to 500 µM; at COX-2 [1] it was 450 ± 50 µM; against COX-2 [1] (listed as F-CEHC) it was 300 to 500 µM; at COX-2 [2], 30 to 70 µM. In addition, at COX-2 [1] (assays using purified COX-1 or COX-2), the “IC50 in the enzyme assay” value is > 3000/1.

Source of the values: patent US20170296505A1, “LONG-CHAIN CARBOXYCHROMANOLS AND ANALOGS FOR USE AS ANTI-INFLAMMATORY AGENTS” (Purdue Research Foundation, priority 2008, published 2017).
